From PubChem BioAssay AID1259407 (Chemical Carcinogenesis Research Information System (CCRIS), 2018)
Activity calls are given as the source filed them. How the calls were made is not given here.

System: CCRIS mutagenicity, Ames/micronucleus/aberration tests
Test: CCRIS mutagenicity studies
[1] = Test System: AMES SALMONELLA TYPHIMURIUM, Strain/Indicator: TA100, Metabolic Activation: NONE, Method: STANDARD PLATE
[2] = Test System: MOUSE LYMPHOMA, Strain/Indicator: L5178Y (TK+/TK-), Metabolic Activation: NONE, Method: SUSPENSION/PLATE

Measured: mutagenic call

O=C1c2ccccc2C(=O)c2ccccc21
active: End Point: IN VIVO MICRONUCLEUS, Test System: PERIPHERAL BLOOD ERYTHROCYTES, Species: MOUSE, Strain/Sex: B6C3F1/MALE, FEMALE, Route: DIET active; positive (at highest dose); (99.8% pure) | Test System: AMES SALMONELLA TYPHIMURIUM, Strain/Indicator: TA1537, Metabolic Activation: RAT LIVER S-9, PHENOBARBITAL AND BETA-NAPHTHOFLAVONE (30%), Method: PREINCUBATION active; positive
inactive: End Point: IN VIVO MICRONUCLEUS, Test System: BONE MARROW POLYCHROMATIC ERYTHROCYTES, Species: MOUSE, Strain/Sex: B6C3F1/MALE, Route: IP INJECTION IN CORN OIL inactive; negative | Test System: AMES SALMONELLA TYPHIMURIUM, Strain/Indicator: TA97, Metabolic Activation: NONE, Method: STANDARD PLATE inactive; negative | Test System: AMES SALMONELLA TYPHIMURIUM, Strain/Indicator: TA97, Metabolic Activation: RAT, LIVER, S-9, PCB, Method: STANDARD PLATE inactive; negative | Test System: AMES SALMONELLA TYPHIMURIUM, Strain/Indicator: TA98, Metabolic Activation: HAMSTER, LIVER, S-9, AROCLOR 1254, Method: STANDARD PLATE inactive; negative | Test System: AMES SALMONELLA TYPHIMURIUM, Strain/Indicator: TA98, Metabolic Activation: NONE, Method: STANDARD PLATE inactive; negative | Test System: AMES SALMONELLA TYPHIMURIUM, Strain/Indicator: TA98, Metabolic Activation: RAT LIVER S-9, AROCLOR, Method: STANDARD PLATE inactive; negative | Test System: AMES SALMONELLA TYPHIMURIUM, Strain/Indicator: TA98, Metabolic Activation: RAT LIVER S-9, PHENOBARBITAL AND BETA-NAPHTHOFLAVONE (30%), Method: PREINCUBATION inactive; negative | Test System: AMES SALMONELLA TYPHIMURIUM, Strain/Indicator: TA98, Metabolic Activation: RAT LIVER S-9, PHENOBARBITAL AND BETA-NAPHTHOFLAVONE, Method: PREINCUBATION inactive; negative | Test System: AMES SALMONELLA TYPHIMURIUM, Strain/Indicator: TA98, Metabolic Activation: RAT, LIVER S-9, AROCLOR 1254 (10%, 30%), Method: PREINCUBATION inactive; negative; 99.8% pure | Test System: AMES SALMONELLA TYPHIMURIUM, Strain/Indicator: TA98, Metabolic Activation: RAT, LIVER, S-9, AROCLOR 1254, Method: STANDARD PLATE inactive; negative | Test System: AMES SALMONELLA TYPHIMURIUM, Strain/Indicator: TA98, Metabolic Activation: RAT, LIVER, S-9, PCB, Method: STANDARD PLATE inactive; negative | Test System: AMES SALMONELLA TYPHIMURIUM, Strain/Indicator: TA100, Metabolic Activation: HAMSTER, LIVER, S-9, AROCLOR 1254, Method: STANDARD PLATE inactive; negative | [1] inactive; negative | Test System: AMES SALMONELLA TYPHIMURIUM, Strain/Indicator: TA100, Metabolic Activation: RAT LIVER S-9, AROCLOR, Method: STANDARD PLATE inactive; negative | Test System: AMES SALMONELLA TYPHIMURIUM, Strain/Indicator: TA100, Metabolic Activation: RAT LIVER S-9, PHENOBARBITAL AND BETA-NAPHTHOFLAVONE (30%), Method: PREINCUBATION inactive; negative | Test System: AMES SALMONELLA TYPHIMURIUM, Strain/Indicator: TA100, Metabolic Activation: RAT LIVER S-9, PHENOBARBITAL AND BETA-NAPHTHOFLAVONE, Method: PREINCUBATION inactive; negative | Test System: AMES SALMONELLA TYPHIMURIUM, Strain/Indicator: TA100, Metabolic Activation: RAT, LIVER S-9, AROCLOR 1254 (10%, 30%), Method: PREINCUBATION inactive; negative; 99.8% pure | Test System: AMES SALMONELLA TYPHIMURIUM, Strain/Indicator: TA100, Metabolic Activation: RAT, LIVER, S-9, AROCLOR 1254, Method: STANDARD PLATE inactive; negative | Test System: AMES SALMONELLA TYPHIMURIUM, Strain/Indicator: TA100, Metabolic Activation: RAT, LIVER, S-9, PCB, Method: STANDARD PLATE inactive; negative | Test System: AMES SALMONELLA TYPHIMURIUM, Strain/Indicator: TA102, Metabolic Activation: NONE, Method: PREINCUBATION inactive; negative; 100% pure | Test System: AMES SALMONELLA TYPHIMURIUM, Strain/Indicator: TA102, Metabolic Activation: RAT, LIVER, S-9, AROCLOR 1254 (10%), Method: PREINCUBATION inactive; negative; 100% pure | Test System: AMES SALMONELLA TYPHIMURIUM, Strain/Indicator: TA102, Metabolic Activation: RAT, LIVER, S-9, AROCLOR 1254, Method: STANDARD PLATE inactive; negative | Test System: AMES SALMONELLA TYPHIMURIUM, Strain/Indicator: TA1535, Metabolic Activation: HAMSTER, LIVER, S-9, AROCLOR 1254, Method: STANDARD PLATE inactive; negative | Test System: AMES SALMONELLA TYPHIMURIUM, Strain/Indicator: TA1535, Metabolic Activation: NONE, Method: PREINCUBATION inactive; negative | Test System: AMES SALMONELLA TYPHIMURIUM, Strain/Indicator: TA1535, Metabolic Activation: NONE, Method: STANDARD PLATE inactive; negative | Test System: AMES SALMONELLA TYPHIMURIUM, Strain/Indicator: TA1535, Metabolic Activation: RAT LIVER S-9, AROCLOR, Method: STANDARD PLATE inactive; negative | Test System: AMES SALMONELLA TYPHIMURIUM, Strain/Indicator: TA1535, Metabolic Activation: RAT LIVER S-9, PHENOBARBITAL AND BETA-NAPHTHOFLAVONE (30%), Method: PREINCUBATION inactive; negative | Test System: AMES SALMONELLA TYPHIMURIUM, Strain/Indicator: TA1535, Metabolic Activation: RAT LIVER S-9, PHENOBARBITAL AND BETA-NAPHTHOFLAVONE, Method: PREINCUBATION inactive; negative | Test System: AMES SALMONELLA TYPHIMURIUM, Strain/Indicator: TA1535, Metabolic Activation: RAT, LIVER, S-9, AROCLOR 1254, Method: STANDARD PLATE inactive; negative | Test System: AMES SALMONELLA TYPHIMURIUM, Strain/Indicator: TA1537, Metabolic Activation: HAMSTER, LIVER, S-9, AROCLOR 1254, Method: STANDARD PLATE inactive; negative | Test System: AMES SALMONELLA TYPHIMURIUM, Strain/Indicator: TA1537, Metabolic Activation: NONE, Method: STANDARD PLATE inactive; negative | Test System: AMES SALMONELLA TYPHIMURIUM, Strain/Indicator: TA1537, Metabolic Activation: RAT LIVER S-9, AROCLOR, Method: STANDARD PLATE inactive; negative | Test System: AMES SALMONELLA TYPHIMURIUM, Strain/Indicator: TA1537, Metabolic Activation: RAT LIVER S-9, PHENOBARBITAL AND BETA-NAPHTHOFLAVONE, Method: PREINCUBATION inactive; negative | Test System: AMES SALMONELLA TYPHIMURIUM, Strain/Indicator: TA1537, Metabolic Activation: RAT, LIVER S-9, AROCLOR 1254 (10%, 30%), Method: PREINCUBATION inactive; negative; 99.8% pure | Test System: AMES SALMONELLA TYPHIMURIUM, Strain/Indicator: TA1537, Metabolic Activation: RAT, LIVER, S-9, AROCLOR 1254, Method: STANDARD PLATE inactive; negative | Test System: E. COLI, Strain/Indicator: WP2 UVRA, Metabolic Activation: NONE, Method: STANDARD PLATE inactive; negative | Test System: E. COLI, Strain/Indicator: WP2 UVRA, Metabolic Activation: RAT LIVER S-9, AROCLOR, Method: STANDARD PLATE inactive; negative | Test System: E.COLI, Strain/Indicator: WP2UVRA, Metabolic Activation: NONE, Method: PREINCUBATION inactive; negative | Test System: E.COLI, Strain/Indicator: WP2UVRA, Metabolic Activation: RAT LIVER S-9, PHENOBARBITAL AND BETA-NAPHTHOFLAVONE (30%), Method: PREINCUBATION inactive; negative | Test System: E.COLI, Strain/Indicator: WP2UVRA, Metabolic Activation: RAT LIVER S-9, PHENOBARBITAL AND BETA-NAPHTHOFLAVONE, Method: PREINCUBATION inactive; negative | [2] inactive; negative | Test System: MOUSE LYMPHOMA, Strain/Indicator: L5178Y (TK+/TK-), Metabolic Activation: RAT LIVER S-9, AROCLOR, Method: SUSPENSION/PLATE inactive; negative

ClC/C=C\CCl
active: Test System: AMES SALMONELLA TYPHIMURIUM, Strain/Indicator: TA98, Metabolic Activation: HAMSTER, LIVER, S-9, AROCLOR 1254 (10%), Method: STANDARD PLATE active; positive | Test System: AMES SALMONELLA TYPHIMURIUM, Strain/Indicator: TA100, Metabolic Activation: HAMSTER, LIVER, S-9, AROCLOR 1254 (10%), Method: STANDARD PLATE active; positive | [1] active; positive | Test System: AMES SALMONELLA TYPHIMURIUM, Strain/Indicator: TA100, Metabolic Activation: RAT, LIVER, S-9, AROCLOR 1254 (10%), Method: STANDARD PLATE active; positive | [2] active; positive. reevaluation of results: positive | Test System: MOUSE LYMPHOMA, Strain/Indicator: L5178Y (TK+/TK-), Metabolic Activation: RAT, LIVER, S-9, AROCLOR 1254, Method: SUSPENSION/PLATE active; positive. reevaluation of results: positive
